Laboratory results published in patent US20260226101A1, “PEPTIDE WITH ANTI-INFLAMMATORY AND ANTI-MICROBIAL ACTIVITY” (priority 2023, published 2026).
Ends that are not written are not given here.

Experiments:
Test in all cases: Time-kill assay
Assay type in all cases: cell-based
[1] = system: Pseudomonas aeruginosa ATCC 9027; details: P. aeruginosa
Description: (§1) The survival of bacteria, time kill efficacy assay of IS 111 was further evaluated for activity against bacterial strain mentioned above according to CLSI reference method, with slightly modification. MICs were determined by broth microdilution assay as described above. […] Test tubes of MHB without test compound IS 111 were used as vehicle controls. Overnight cultures of the bacterial strains at cell densities of approximately 1×10^8 CFU/ml were used to inoculate both test and control tubes. The standard tube dilution method was opted to evaluate the time-kill efficacy of bacteria. Bacterial inoculum (1 mL) was diluted by adding 9 mL sterile saline solution and serially diluted up to 10^−3. […] 100 μL incubated suspension was transferred on the agar plates and spread through the spreader. Colony counts were performed after 24 h incubation at 37° C. Plates with 10-300 colonies were used for these counts, and the kill rate was determined by plotting log 10 viable counts (CFU/ml) against time. Bactericidal activity was defined as a ≥3 log 10 decreases in CFU/ml of the initial microbial population, while bacteriostatic activity was defined was defined as a <3 log 10 decrease in CFU/ml. The assay was performed in triplicate [Olufunmiso O Olajuyigbe et al., 2015; Sutthiwan Thammawat et al., 2017]
(§2) The time-kill kinetics antibacterial study of the Peptide IS 111 was carried out to assess the killing rate of the compound within a given contact time. The survival of bacteria, time kill efficacy assay of IS 111 was further evaluated for activity against Escherichia coli ATCC 8739 and Staphylococcus aureus ATCC 6538, Pseudomonas aeruginosa ATCC 9027 and Klebsiella pneumoniae ATCC 700603 according to CLSI reference method, with slightly modification. MICs were determined by broth microdilution assay as described above. […] 10. Test tubes of MHB without test compound Peptide IS 111 were used as vehicle controls. Overnight cultures of the bacterial strains at cell densities of approximately 1×10^6 CFU/ml were used to inoculate both test and control tubes.
(§3) After each interval, ten-fold dilutions were prepared with normal saline, and 100 μL incubated suspension was transferred on the agar plates and spread through the spreader. Colony counts were performed after 24 h incubation at 37° C. Plates with 10-300 colonies were used for these counts, and the kill rate was determined by plotting log 10 viable counts (CFU/ml) against time. Bactericidal activity was defined as a ≥3 log 10 decrease in CFU/ml of the initial microbial population, while bacteriostatic activity was defined as a <3 log 10 decrease in CFU/ml. The assay was performed in triplicate. The proportion of cells surviving at 60 min was calculated, as was the mean and standard deviation. Proportions of surviving cells were compared using Student's 2-tailed t-test, assuming unequal variance and differences were considered significant where p≤0.05.

[2] = system: Staphylococcus aureus ATCC 6538; details: S. aureus
Description: as §1, §2, §3

[3] = system: Klebsiella pneumoniae ATCC 700603; details: K. pneumoniae
Description: as §1, §2, §3

## FAKKFAK [IS 111, Phe-Ala-Lys-Lys-Phe-Ala-Lys]
[1]; 0.5 × MIC, 0 h
  Viable count: 6.3 ± 0.30 1 × 10^5 CFU/ml
[1]; 0.5 × MIC, 1 h
  Viable count: 5.4 ± 0.18 1 × 10^5 CFU/ml
[1]; 0.5 × MIC, 2 h
  Viable count: 4.9 ± 0.15 1 × 10^5 CFU/ml
[1]; 0.5 × MIC, 3 h
  Viable count: 4.1 ± 0.20 1 × 10^5 CFU/ml
[1]; 0.5 × MIC, 4 h
  Viable count: 3.5 ± 0.15 1 × 10^5 CFU/ml
[1]; 0.5 × MIC, 5 h
  Viable count: 2.8 ± 0.23 1 × 10^5 CFU/ml
[1]; 0.5 × MIC, 12 h
  Viable count: 2.4 ± 0.15 1 × 10^5 CFU/ml
[1]; 0.5×MIC (1.56 μg/ml), 24 h
  Reduction in viability: 1 log 10 CFU/ml
[1]; 0.5×MIC, 24 h
  Type of activity (bacteriostatic or bactericidal): bacteriostatic
  Viable count: 2.1 ± 0.25 1 × 10^5 CFU/ml
[1]; 1 × MIC, 0 h
  Viable count: 6.4 ± 0.15 1 × 10^5 CFU/ml
[1]; 1 × MIC, 1 h
  Viable count: 4.0 ± 0.30 1 × 10^5 CFU/ml
[1]; 1 × MIC, 2 h
  Viable count: 1.9 ± 0.20 1 × 10^5 CFU/ml
[1]; 1 × MIC, 3 h
  Viable count: 1.0 ± 0.08 1 × 10^5 CFU/ml
[1]; 1 × MIC, 4 h
  Viable count: 0.5 ± 0.08 1 × 10^5 CFU/ml
[1]; 1 × MIC, 5 h
  Viable count: 0.2 ± 0.05 1 × 10^5 CFU/ml
[1]; 1 × MIC, 12 h
  Viable count: 0.0 1 × 10^5 CFU/ml
[1]; 1 × MIC, 24 h
  Viable count: 0.0 1 × 10^5 CFU/ml
[1]; 1×MIC (3.13 μg/ml)
  Time to bacteriostatic activity: ≤ 12 h
[1]; 5 × MIC, 0 h
  Viable count: 6.4 ± 0.15 1 × 10^5 CFU/ml
[1]; 5 × MIC, 1 h
  Viable count: 0.4 ± 0.10 1 × 10^5 CFU/ml
[1]; 5 × MIC, 2 h
  Viable count: 0.0 1 × 10^5 CFU/ml
[1]; 5 × MIC, 3 h
  Viable count: 0.0 1 × 10^5 CFU/ml
[1]; 5 × MIC, 4 h
  Viable count: 0.0 1 × 10^5 CFU/ml
[1]; 5 × MIC, 5 h
  Viable count: 0.0 1 × 10^5 CFU/ml
[1]; 5 × MIC, 12 h
  Viable count: 0.0 1 × 10^5 CFU/ml
[1]; 5 × MIC, 24 h
  Viable count: 0.0 1 × 10^5 CFU/ml
[2]; 0.5 × MIC, 0 h
  Viable count: 5.1 ± 0.65 1 × 10^5 CFU/ml
[2]; 0.5 × MIC, 1 h
  Viable count: 4.6 ± 0.48 1 × 10^5 CFU/ml
[2]; 0.5 × MIC, 2 h
  Viable count: 3.8 ± 0.68 1 × 10^5 CFU/ml
[2]; 0.5 × MIC, 3 h
  Viable count: 3.2 ± 0.58 1 × 10^5 CFU/ml
[2]; 0.5 × MIC, 4 h
  Viable count: 2.5 ± 0.58 1 × 10^5 CFU/ml
[2]; 0.5 × MIC, 5 h
  Viable count: 2.1 ± 0.43 1 × 10^5 CFU/ml
[2]; 0.5 × MIC, 12 h
  Viable count: 1.8 ± 0.43 1 × 10^5 CFU/ml
[2]; 0.5×MIC (1.56 μg/ml), 24 h
  Reduction in viability: 2 log 10 CFU/ml
[2]; 0.5×MIC, 24 h
  Type of activity (bacteriostatic or bactericidal): bacteriostatic
  Viable count: 1.2 ± 0.23 1 × 10^5 CFU/ml
[2]; 1 × MIC, 0 h
  Viable count: 5.3 ± 0.10 1 × 10^5 CFU/ml
[2]; 1 × MIC, 1 h
  Viable count: 3.7 ± 0.43 1 × 10^5 CFU/ml
[2]; 1 × MIC, 2 h
  Viable count: 1.6 ± 0.48 1 × 10^5 CFU/ml
[2]; 1 × MIC, 3 h
  Viable count: 0.7 ± 0.15 1 × 10^5 CFU/ml
[2]; 1 × MIC, 4 h
  Viable count: 0.3 ± 0.15 1 × 10^5 CFU/ml
[2]; 1 × MIC, 5 h
  Viable count: 0.2 ± 0.00 1 × 10^5 CFU/ml
[2]; 1 × MIC, 12 h
  Viable count: 0 1 × 10^5 CFU/ml
[2]; 1 × MIC, 24 h
  Viable count: 0 1 × 10^5 CFU/ml
[2]; 1×MIC (3.13 μg/ml)
  Time to bacteriostatic activity: ≤ 12 h
[2]; 5 × MIC, 0 h
  Viable count: 5.6 ± 0.30 1 × 10^5 CFU/ml
[2]; 5 × MIC, 1 h
  Viable count: 0.8 ± 0.13 1 × 10^5 CFU/ml
[2]; 5 × MIC, 2 h
  Viable count: 0.4 ± 0.08 1 × 10^5 CFU/ml
[2]; 5 × MIC, 3 h
  Viable count: 0 1 × 10^5 CFU/ml
[2]; 5 × MIC, 4 h
  Viable count: 0 1 × 10^5 CFU/ml
[2]; 5 × MIC, 5 h
  Viable count: 0 1 × 10^5 CFU/ml
[2]; 5 × MIC, 12 h
  Viable count: 0 1 × 10^5 CFU/ml
[2]; 5 × MIC, 24 h
  Viable count: 0 1 × 10^5 CFU/ml
[2]; 5×MIC (15.6 μg/ml)
  Time to bacteriostatic activity: ≤ 2 h
[3]; 0.5 × MIC, 0 h
  Viable count: 4.8 ± 0.50 1 × 10^5 CFU/ml
[3]; 0.5 × MIC, 1 h
  Viable count: 4.2 ± 0.35 1 × 10^5 CFU/ml
[3]; 0.5 × MIC, 2 h
  Viable count: 3.4 ± 0.55 1 × 10^5 CFU/ml
[3]; 0.5 × MIC, 3 h
  Viable count: 2.9 ± 0.45 1 × 10^5 CFU/ml
[3]; 0.5 × MIC, 4 h
  Viable count: 2.1 ± 0.48 1 × 10^5 CFU/ml
[3]; 0.5 × MIC, 5 h
  Viable count: 1.7 ± 0.30 1 × 10^5 CFU/ml
[3]; 0.5 × MIC, 12 h
  Viable count: 1.5 ± 0.33 1 × 10^5 CFU/ml
[3]; 0.5×MIC (3.13 μg/ml), 24 h
  Reduction in viability: < 1 log 10 CFU/ml
[3]; 0.5×MIC, 24 h
  Type of activity (bacteriostatic or bactericidal): bacteriostatic
  Viable count: 0.8 ± 0.13 1 × 10^5 CFU/ml
[3]; 1 × MIC, 0 h
  Viable count: 5.1 ± 0.23 1 × 10^5 CFU/ml
[3]; 1 × MIC, 1 h
  Viable count: 4.0 ± 0.18 1 × 10^5 CFU/ml
[3]; 1 × MIC, 2 h
  Viable count: 1.9 ± 0.40 1 × 10^5 CFU/ml
[3]; 1 × MIC, 3 h
  Viable count: 1.2 ± 0.15 1 × 10^5 CFU/ml
[3]; 1 × MIC, 4 h
  Viable count: 0.6 ± 0.03 1 × 10^5 CFU/ml
[3]; 1 × MIC, 5 h
  Viable count: 0.5 ± 0.05 1 × 10^5 CFU/ml
[3]; 1 × MIC, 12 h
  Viable count: 0.2 ± 0.15 1 × 10^5 CFU/ml
[3]; 1 × MIC, 24 h
  Viable count: 0 1 × 10^5 CFU/ml
[3]; 1×MIC (6.25 μg/ml)
  Time to bacteriostatic activity: ≤ 24 h
[3]; 5 × MIC, 0 h
  Viable count: 5.6 ± 0.18 1 × 10^5 CFU/ml
[3]; 5 × MIC, 1 h
  Viable count: 1.8 ± 0.13 1 × 10^5 CFU/ml
[3]; 5 × MIC, 2 h
  Viable count: 0.9 ± 0.08 1 × 10^5 CFU/ml
[3]; 5 × MIC, 3 h
  Viable count: 0.6 ± 0.08 1 × 10^5 CFU/ml
[3]; 5 × MIC, 4 h
  Viable count: 0.4 ± 0.05 1 × 10^5 CFU/ml
[3]; 5 × MIC, 5 h
  Viable count: 0 1 × 10^5 CFU/ml
[3]; 5 × MIC, 12 h
  Viable count: 0 1 × 10^5 CFU/ml
[3]; 5 × MIC, 24 h
  Viable count: 0 1 × 10^5 CFU/ml
[3]; 5×MIC (31.25 μg/ml)
  Time to bacteriostatic activity: ≤ 5 h
